These results are taken from ChEMBL document CHEMBL5233265, “Recent advances in the design and development of formyl peptide receptor 2 (FPR2/ALX) agonists as pro-resolving agents with diverse therapeutic potential” (Eur J Med Chem, 2021).

Test [1] deals with T1, N-formyl peptide receptor 2 (Homo sapiens, UniProt P25090).
T1 sequence (P25090 whole entry): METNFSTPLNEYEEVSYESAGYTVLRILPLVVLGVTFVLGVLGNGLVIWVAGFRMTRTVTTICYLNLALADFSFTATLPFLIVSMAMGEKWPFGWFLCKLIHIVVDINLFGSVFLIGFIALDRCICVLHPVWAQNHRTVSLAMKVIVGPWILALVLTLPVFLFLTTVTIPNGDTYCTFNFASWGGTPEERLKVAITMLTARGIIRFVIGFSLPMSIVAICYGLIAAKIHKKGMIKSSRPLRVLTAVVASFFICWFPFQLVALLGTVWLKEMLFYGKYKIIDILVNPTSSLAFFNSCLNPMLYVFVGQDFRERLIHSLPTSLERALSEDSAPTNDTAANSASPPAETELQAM
Briefly: Agonist activity at human FPR2 expressed in HEK293 cells assessed as increase in calcium flux incubated for 45 mins by Fluo-4 AM dye based fluorescence assay. It counts as cell-based.

The subject of test [2] is Mus musculus. Put plainly: Anti-inflammatory activity against BALB/c mouse assessed as suppression ratio of LPS-induced neutrophil infiltration in lung at 1 mg/kg,po measured after 5.5 hrs by Diff-Quick staining based microscopic analysis. The class given is functional.
Test [3] deals with T2, fMet-Leu-Phe receptor (Homo sapiens, UniProt P21462).
T2 sequence (P21462 whole entry): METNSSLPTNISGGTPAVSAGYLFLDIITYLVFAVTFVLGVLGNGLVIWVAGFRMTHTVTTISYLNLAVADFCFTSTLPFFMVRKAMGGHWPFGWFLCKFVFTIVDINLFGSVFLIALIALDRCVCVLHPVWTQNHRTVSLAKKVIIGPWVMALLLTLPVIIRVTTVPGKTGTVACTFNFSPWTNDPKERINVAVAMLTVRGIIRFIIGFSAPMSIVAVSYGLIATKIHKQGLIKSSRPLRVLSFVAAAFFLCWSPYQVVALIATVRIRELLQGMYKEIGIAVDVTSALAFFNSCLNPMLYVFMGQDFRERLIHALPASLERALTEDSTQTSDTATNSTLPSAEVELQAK
Briefly: Agonist activity at FPR1 (unknown origin) expressed in CHO/Galpha16 cells assessed as increase in calcium flux by FLIPR assay. It counts as cell-based.

In test [4] the target is T1, N-formyl peptide receptor 2. Briefly: Agonist activity at FPR2 (unknown origin) expressed in CHO/Galpha16 cells assessed as increase in calcium flux by FLIPR assay. It counts as cell-based.
For test [5], the system named is Mus musculus. Briefly: Anti-inflammatory activity against BALB/c mouse assessed as suppression ratio of LPS-induced neutrophil infiltration in lung at 3 mg/kg,po measured after 5.5 hrs by Diff-Quick staining based microscopic analysis. It counts as functional.
Test [6] has as its target T1, N-formyl peptide receptor 2. Put plainly: Agonist activity at human recombinant FPR2 stably transfected in Flp-In-CHO cells assessed as increase in intracellular calcium mobilization incubated for 1 hr by Fluo-4 AM dye based fluorescence plate reader assay. It counts as cell-based.
Test [7] deals with T3, fMet-Leu-Phe receptor (Homo sapiens) (UniProt P21462).
T3 sequence (whole entry): T2 sequence (P21462 whole entry)
Briefly: Agonist activity at human recombinant FPR1 stably transfected in Flp-In-CHO cells assessed as maximal intracellular calcium mobilization at 10 uM incubated for 1 hr by Fluo-4 AM dye based fluorescence plate reader assay relative to control. It counts as cell-based.

In test [8] the target is T1, N-formyl peptide receptor 2. Put plainly: Agonist activity at human recombinant FPR2 stably transfected in Flp-In-CHO cells assessed as ERK1/2 phosphorylation incubated for 1 hr by Alphascreen fluorescence assay. The class given is cell-based.
The target in test [9] is T4, N-formyl peptide receptor 2 (Homo sapiens) (UniProt P25090).
T4 sequence (whole entry): T1 sequence (P25090 whole entry)
Put plainly: Agonist activity at human recombinant FPR2 stably transfected in Flp-In-CHO cells assessed as ERK1/2 phosphorylation at 10 uM incubated for 1 hr by Alphascreen fluorescence assay relative to control. The class given is cell-based. Particulars: filed as agonist; call rule not given here.

In test [10] the target is T4, N-formyl peptide receptor 2 (Homo sapiens). Put plainly: Agonist activity at human recombinant FPR2 stably transfected in Flp-In-CHO cells assessed as maximal intracellular calcium mobilization at 10 uM incubated for 1 hr by Fluo-4 AM dye based fluorescence plate reader assay relative to control. It counts as cell-based.
Test [11] deals with T3, fMet-Leu-Phe receptor (Homo sapiens). Put plainly: Agonist activity at human recombinant FPR1 stably transfected in Flp-In-CHO cells assessed as ERK1/2 phosphorylation at 10 uM incubated for 1 hr by Alphascreen fluorescence assay relative to control. To be noted: filed as agonist. It counts as cell-based.
Test [12] addresses T2, fMet-Leu-Phe receptor. Briefly: Agonist activity at human recombinant FPR1 stably transfected in Flp-In-CHO cells assessed as ERK1/2 phosphorylation incubated for 1 hr by Alphascreen fluorescence assay. The class given is cell-based.
Test [13] deals with T2, fMet-Leu-Phe receptor. Briefly: Agonist activity at human recombinant FPR1 stably transfected in Flp-In-CHO cells assessed as increase in intracellular calcium mobilization incubated for 1 hr by Fluo-4 AM dye based fluorescence plate reader assay. The class given is cell-based.
For test [14], the target named is T1, N-formyl peptide receptor 2. Briefly: Agonist activity at human FPR2 transfected in HL-60 cells assessed as increase in intracellular calcium flux incubated for 30 mins by Fluo-4 AM dye based fluorometer analysis. It counts as cell-based. Particulars: read-out: EC50.
Test [15] addresses T2, fMet-Leu-Phe receptor. Briefly: Agonist activity at human FPR1 transfected in HL-60 cells assessed as increase in intracellular calcium flux incubated for 30 mins by Fluo-4 AM dye based fluorometer analysis. It counts as cell-based.
Test [16] has as its target T4, N-formyl peptide receptor 2 (Homo sapiens). Briefly: Agonist activity at human FPR2 transfected in HL-60 cells assessed as maximal intracellular calcium flux incubated for 30 mins by Fluo-4 AM dye based fluorometer analysis relative to control. Particulars: filed as agonist. The class given is cell-based.
The target of test [17] is T3, fMet-Leu-Phe receptor (Homo sapiens). Put plainly: Agonist activity at human FPR1 transfected in HL-60 cells assessed as maximal intracellular calcium flux incubated for 30 mins by Fluo-4 AM dye based fluorometer analysis relative to control. It counts as cell-based. To be noted: filed as agonist.
Test [18] deals with T1, N-formyl peptide receptor 2. Briefly: Agonist activity at FPR2 (unknown origin) assessed as increase in calcium flux.
The target is the same in test [19]. Put plainly: Agonist activity at human FPR2 transfected in HL-60 cells assessed as increase in intracellular calcium flux incubated for 30 mins by Fluo-4 AM dye based FLIPR-fluorometeric assay. It counts as cell-based.
Test [20] deals with T2, fMet-Leu-Phe receptor. Briefly: Agonist activity at human FPR1 transfected in HL-60 cells assessed as increase in intracellular calcium flux incubated for 30 mins by Fluo-4 AM dye based FLIPR-fluorometeric assay. It counts as cell-based.
In test [21] the target is T4, N-formyl peptide receptor 2 (Homo sapiens). Briefly: Agonist activity at human FPR2 transfected in HL-60 cells assessed as maximal intracellular calcium flux incubated for 30 mins by Fluo-4 AM dye based FLIPR-fluorometeric assay relative to control. It counts as cell-based. Particulars: filed as agonist.
Test [22] can be described thus: Agonist activity at FPR in human PMNL cells assessed as increase in intracellular calcium mobilization incubated for 30 mins by Fluo-4 AM dye based FLIPR-fluorometeric assay. It counts as cell-based. To be noted: 0.5 h.
The next test concerns PMNL. Briefly: Agonist activity at FPR in human PMNL cells assessed as maximal intracellular calcium mobilization incubated for 30 mins by Fluo-4 AM dye based FLIPR-fluorometeric assay relative to control. The class given is cell-based. Particulars: filed as agonist.
Test [23] concerns the target T2, fMet-Leu-Phe receptor. Briefly: Agonist activity at human FPR1 expressed in CHO cells assessed as increase in calcium flux incubated for 50 mins by FLIPR calcium 5 dye based fluorescence assay. The class given is cell-based.
In test [24] the target is T1, N-formyl peptide receptor 2. Briefly: Agonist activity at human FPR2 expressed in CHO cells assessed as increase in calcium flux incubated for 50 mins by FLIPR calcium 5 dye based fluorescence assay. The class given is cell-based.

`COc1ccc(NC(=O)N[C@@H]2/C(=N/OCCO)NC[C@H]2c2c(F)cc(OC)cc2F)cc1`: the EC50 in test [1] worked out at 0.27 nM. Moreover, the Ratio with Mus musculus [2] is reported as 96.8%.
`CC(C)C(C(=O)O)C(C)NC(=O)Nc1ccc(Br)cc1` (stereo in doubt; 21): the EC50 was determined as 1.7 nM at fMet-Leu-Phe receptor [3] and 25 nM in test [4].
Consider `N#Cc1ccc(NC(=O)N[C@@H]2C(=O)NC[C@H]2c2cc3c(cc2F)OCC3)cc1`, for which, in the test on Mus musculus [2], the Ratio amounted to 99.2%.
On to `CCN1C[C@@H](c2ccc(OC)cc2)[C@H](NC(=O)Nc2ccc(F)cc2)C1=O`, for which the EC50 in [1] came to 0.13 nM. In addition, the Ratio with Mus musculus [5] was 97.4%.
For the molecule `COc1cccc(Cc2cc(C)nn(C(C)C(=O)Nc3ccc(Cl)cc3)c2=O)c1` (racemic), the EC50 is > 10000 nM in [6], 1580 nM in test [8], 1000 nM on fMet-Leu-Phe receptor [12] and 7940 nM at fMet-Leu-Phe receptor [13]. The Emax in [7] was determined as 22%; in [9], 82%; in test [10], 6%; in test [11], 70%.
As for `COc1ccc(NC(=O)N[C@@H](Cc2ccc(C#N)cc2)C(=O)NCC2(c3ccc(O)cc3)CC2)cc1`, the EC50 was determined as 1600 nM in test [14] and 1300 nM on fMet-Leu-Phe receptor [15] (read-out: EC50). In addition, in test [16], the Emax stood at 75%.
Turning to `CC(C)C(C(=O)O)C(C)NC(=O)Nc1ccc(Br)cc1` (stereo in doubt; 18), the EC50 stood at 51 nM on fMet-Leu-Phe receptor [3] and 855 nM in [4].
Turning to `COc1ccc(NC(=O)N[C@H](Cc2ccc(O)cc2)C(=O)NCC2(c3ccccc3)CC2)cc1`, the EC50 was found to be 410 nM in test [14] (hl-60) and 5100 nM at fMet-Leu-Phe receptor [15] (hl-60, read-out: EC50). The Emax in [16] is 90%; in test [17] it was 55%.
In the case of `COc1ccc(NC(=O)N[C@H](Cc2ccc(C#N)cc2)C(=O)NCC2(c3ccc(O)cc3)CC2)cc1`, the figures for the EC50 (in test [14]; at fMet-Leu-Phe receptor [15] (hl-60)) were 7000 nM and “Not Active”, respectively. Besides, in test [16], the maximal effect (Emax) is 70%.
For the molecule `COc1cc(F)c([C@@H]2CN3CCON=C3[C@H]2NC(=O)Nc2ccc(F)cc2)c(F)c1`, the EC50 in [18] amounted to 0.02 nM.
Consider `COc1cccc(Cc2c(-c3ccccc3)c(C)nn(CC(=O)Nc3ccc(Br)cc3)c2=O)c1`, for which the figures for the EC50 (in test [19]; on fMet-Leu-Phe receptor [20]; in test [22]) were 150 nM, “Not Active” and 200 nM, respectively. Besides, the Emax came out at 115% in test [21] and 110% in the test on PMNL.
Consider `COc1ccc([C@H]2CCN(c3ccnnc3)C[C@@H]2NC(=O)Nc2ccc(Cl)cc2)cc1` (relative stereo), for which the EC50 (on fMet-Leu-Phe receptor [23]; in test [24]) was 1 nM each time.
Regarding `CC(C)C(C(=O)O)C(C)NC(=O)Nc1ccc(Br)cc1` (stereo in doubt; 20), the figures for the EC50 (at fMet-Leu-Phe receptor [3]; in test [4]) were 98 nM and 9940 nM, respectively.
